MIC and MIC SA101 29213 data for 6 compounds are collected here from patent publication US8796245B2 (TetraPhase Pharmaceuticals, Inc., priority 2008, dated 2014).

Structures are written as SMILES. Converted amounts (≈) assume the structure as drawn. Read-outs that look alike come from different tables or passages of the source.

Holding throughout (format): cell-based
Test [1] deals with E. cloacae ATCC 13047 (EC108). The experiment in a line: Minimum inhibitory concentration assay, EC108. Here is the method: (§1) Frozen bacterial strains were thawed and subcultured onto Mueller Hinton Broth (MHB) or other appropriate media (Streptococcus requires blood and Haemophilus requires hemin and NAD). Following incubation overnight, the strains were subcultured onto Mueller Hinton Agar and again incubated overnight. […] Isolated colonies were selected to prepare a starting inoculum equivalent to a 0.5 McFarland standard. The starting inoculum was diluted 1:125 using MHB for further use. Test compounds were prepared by dilution in sterile water to a final concentration of 5.128 mg/mL. Antibiotics (stored frozen, thawed and used within 3 hours of thawing) and compounds were further diluted to the desired working concentrations.
(§2) The assays were run as follows. Fifty μL of MHB was added to wells 2-12 of a 96-well plate. One hundred […] of appropriately diluted antibiotics was added to well 1. Fifty μL of antibiotics was removed from well 1 and added to well 2 and the contents of well 2 mixed by pipetting up and down five times. Fifty μL of the mixture in well 2 was removed and added to well 3 and mixed as above. Serial dilutions were continued in the same manner through well 12. Fifty μL was removed from well 12 so that all contained 50 μL. Fifty μL of the working inoculum was then added to all test wells. A growth control well was prepared by adding 50 μL of working inoculum and 50 μL of MHB to an empty well. The plates were then incubated at 37° C. overnight, removed from the incubator and each well was read on a plate reading mirror. The lowest concentration (MIC) of test compound that inhibited the growth of the bacteria was recorded.

The test system of test [2] is P. aeruginosa ATCC 27853 (PA111). The experiment in a line: Minimum inhibitory concentration assay, PA111. Here is the method:
as §1, §2

For test [3], the system named is S. aureus ATCC 29213 (SA101, MSSA). Kind of test: Minimum inhibitory concentration assay, SA101. The conditions noted are these: for MIC SA101 29213: control compounds, numeric MIC, 0.016 means 0.016 or lower; for MIC: Staphylococcus aureus, S. aureus ATCC 29213, MSSA control, read-out: MICs SA101. Here is the method:
as §1, §2

Test [4] deals with A. baumanii ATCC 19606 (AB110). The experiment in a line: Minimum inhibitory concentration assay, AB110. The procedure: as §1, §2
Test [5] concerns E. coli EC155 (tet resistant: tetA efflux). Kind of test: microbe, parasite or virus in culture. Here is the method:
as §1, §2

Test [6] has as its system S. aureus SA158 (tet resistant: tetK efflux). Kind of test: microbe, parasite or virus in culture. The conditions noted are these: Staphylococcus aureus, read-out: MICs SA158. The procedure:
as §1, §2

Test [7] deals with K. pneumoniae KP153 (tet resistant: tetA efflux). Kind of test: microbe, parasite or virus in culture. The conditions noted are these: Klebsiella pneumoniae, read-out: MICs KP153. The procedure: as §1, §2
For test [8], the system named is S. pneumoniae ATCC 49619 (SP106). The experiment in a line: Minimum inhibitory concentration assay, SP106. The conditions noted are these: Streptococcus pneumoniae, ATCC49619; S. pneumoniae ATCC 49619, wt; read-out: MICs SP106. Here is the method: as §1, §2
Test [9] relates to K. pneumoniae ATCC 13883 (KP109). Kind of test: Minimum inhibitory concentration assay, KP109. The conditions noted are these: Klebsiella pneumoniae, ATCC13883; K. pneumoniae ATCC 13883, wt; read-out: MICs KP109. The procedure: as §1, §2
The subject of test [10] is S. pneumoniae SP160 (tet resistant: tet M). Kind of test: Minimum inhibitory concentration assay, SP160. The conditions noted are these: Streptococcus pneumoniae, read-out: MICs SP160. Here is the method:
as §1, §2

Test [11] concerns E. faecalis EF159 (tet resistant: tetM). The experiment in a line: Minimum inhibitory concentration assay, EF159. The conditions noted are these: Enterococcus faecalis, read-out: MICs EF159. Here is the method:
as §1, §2

The test system of test [12] is E. faecalis ATCC 29212 (EF103). Kind of test: Minimum inhibitory concentration assay, EF103. The conditions noted are these: Enterococcus faecalis, ATCC29212, read-out: MICs EF103. Here is the method: as §1, §2
Test [13] concerns E. coli ATCC 25922 (EC107). Kind of test: Minimum inhibitory concentration assay, EC107. The conditions noted are these: Escherichia coli, ATCC25922; E. coli ATCC 25922, wt; read-out: MICs EC107. Here is the method: as §1, §2
For test [14], the system named is S. aureus SA161 (tet resistant: tet(M) ribosomal protection). Kind of test: Minimum inhibitory concentration assay, SA161. The conditions noted are these: Staphylococcus aureus, read-out: MICs SA161. The procedure: as §1, §2
The subject of test [15] is S. aureus ATCC 13709 (SA100, MSSA, Smith strain). The experiment in a line: Minimum inhibitory concentration assay, SA100. The conditions noted are these: Staphylococcus aureus; S. aureus ATCC 13709, MSSA Smith strain; read-out: MICs SA100. Here is the method:
as §1, §2

Where [16] appears, read: EC108, control compounds, numeric.
The mark [17] stands for this setting: PA111, control compounds, numeric.
Setting [18] is: AB110, control compounds, numeric.
The mark [19] stands for this setting: Enterobacter cloacae, ATCC13047, E. cloacae ATCC 13047, wt, read-out: MICs EC108.
[20] abbreviates: Escherichia coli, E. coli tet resistant: tetA (efflux), read-out: MICs EC155.
[21] abbreviates: Pseudomonas aeruginosa, ATCC27853, P. aeruginosa ATCC 27853, wt, read-out: MICs PA111.
Setting [22] is: Acinetobacter baumannii, ATCC19606, A. baumanii ATCC 19606, wt, read-out: MICs AB110.
Setting [23] is: EC155 tetA, control compounds, numeric.

As for `CN(C)c1ccc(O)c2c1C[C@H]1C[C@H]3[C@H](N(C)C)C(O)=C(C(N)=O)C(=O)[C@@]3(O)C(O)=C1C2=O` [Minocycline], the MIC in test [1] (setting [16]) came to 2 µg/mL (≈ 4.37 µM); in test [2] (setting [17]) it was 16 µg/mL (≈ 35 µM); in test [4] (setting [18]), 0.06 µg/mL (≈ 0.131 µM). The same compound had an MIC SA101 29213 in test [3] of 0.06 µg/mL (≈ 0.131 µM).
As for `CC(C)CNCC(=O)Nc1cc(F)c2c(c1O)C(=O)C1=C(O)[C@]3(O)C(=O)C(C(N)=O)=C(O)[C@@H](N(C)C)[C@@H]3C[C@@H]1C2` [Compound 19], the MIC in test [1] (setting [19]) is 2 µg/mL (≈ 3.57 µM); in [5] (setting [20]), 4 µg/mL (≈ 7.14 µM); in [6], 0.25 µg/mL (≈ 0.446 µM); in test [7] it was 4 µg/mL (≈ 7.14 µM); in [8], at most 0.0156 µg/mL; in [9], 1 µg/mL (≈ 1.78 µM). Besides, the MIC in [10] was at most 0.0156 µg/mL; in test [11], 0.125 µg/mL (≈ 0.223 µM); in [12], at most 0.0156 µg/mL; in test [2] (setting [21]) it was 16 µg/mL (≈ 28.5 µM); in [3] it was 0.125 µg/mL (≈ 0.223 µM); in test [4] (setting [22]), 0.25 µg/mL (≈ 0.446 µM). Moreover, the MIC in test [13], in [14] and in [15] was 0.25 µg/mL (≈ 0.446 µM) throughout.
Regarding `CN(C)CC(=O)Nc1cc(F)c2c(c1O)C(=O)C1=C(O)[C@]3(O)C(=O)C(C(N)=O)=C(O)[C@@H](N(C)C)[C@@H]3C[C@@H]1C2` [Compound 23], the MIC in test [1] (setting [19]) is 1 µg/mL (≈ 1.88 µM); in test [5] (setting [20]), 8 µg/mL (≈ 15 µM); in test [6] it was 0.25 µg/mL (≈ 0.469 µM); in [7], 8 µg/mL (≈ 15 µM); in [8] it was at most 0.0156 µg/mL; in test [9], 0.5 µg/mL (≈ 0.939 µM). Further, the MIC is at most 0.0156 µg/mL in test [10]; 0.0313 µg/mL (≈ 0.0588 µM) in test [11]; at most 0.0156 µg/mL in test [12]; 8 µg/mL (≈ 15 µM) in test [2] (setting [21]); at most 0.0156 µg/mL in test [3]; 0.125 µg/mL (≈ 0.235 µM) in test [4] (setting [22]). Also, the MIC in test [13] amounted to 0.125 µg/mL (≈ 0.235 µM); in test [14] it was 0.125 µg/mL (≈ 0.235 µM); in test [15], 0.5 µg/mL (≈ 0.939 µM).
As to `COCCCNCC(=O)Nc1cc(F)c2c(c1O)C(=O)C1=C(O)[C@]3(O)C(=O)C(C(N)=O)=C(O)[C@@H](N(C)C)[C@@H]3C[C@@H]1C2` [Compound 27], the MIC came out at 16 µg/mL (≈ 27.7 µM) in test [1] (setting [19]); 32 µg/mL (≈ 55.5 µM) in [5] (setting [20]); 16 µg/mL (≈ 27.7 µM) in test [6]; 32 µg/mL (≈ 55.5 µM) in [7]; 0.125 µg/mL (≈ 0.217 µM) in [8]; 8 µg/mL (≈ 13.9 µM) in test [9]. In addition, the MIC in test [10] was 0.5 µg/mL (≈ 0.867 µM); in test [11], 4 µg/mL (≈ 6.94 µM); in test [12], 2 µg/mL (≈ 3.47 µM); in test [2] (setting [21]) it was above 32 µg/mL; in test [3], 2 µg/mL (≈ 3.47 µM); in [4] (setting [22]), 16 µg/mL (≈ 27.7 µM). Further, the MIC in test [13] was 4 µg/mL (≈ 6.94 µM); in [14], 4 µg/mL (≈ 6.94 µM); in [15] it was 2 µg/mL (≈ 3.47 µM).
For `CN(C)c1cc(NC(=O)CNC(C)(C)C)c(O)c2c1C[C@H]1C[C@H]3[C@H](N(C)C)C(O)=C(C(N)=O)C(=O)[C@@]3(O)C(O)=C1C2=O` [Tigecycline], the MIC in test [1] (setting [16]) was determined as 0.25 µg/mL (≈ 0.427 µM); in test [5] (setting [23]) it was 0.5 µg/mL (≈ 0.854 µM); in test [2] (setting [17]), 8 µg/mL (≈ 13.7 µM); in test [4] (setting [18]), 0.25 µg/mL (≈ 0.427 µM). Besides, in [3], the MIC SA101 29213 was found to be 0.06 µg/mL (≈ 0.102 µM).
For `CN(C)[C@@H]1C(O)=C(C(N)=O)C(=O)[C@@]2(O)C(O)=C3C(=O)c4c(O)cccc4C[C@H]3C[C@@H]12` [Sancycline], the MIC in test [1] (setting [16]) was 8 µg/mL (≈ 19.3 µM); in [5] (setting [23]), 32 µg/mL (≈ 77.2 µM); in test [2] (setting [17]), above 32 µg/mL; in test [4] (setting [18]) it was 0.25 µg/mL (≈ 0.603 µM). Further, in test [3], the MIC SA101 29213 came to 0.5 µg/mL (≈ 1.21 µM).
